Experimental data taken from paper PMC2606016 (The Journal of Biological Chemistry, 2008).

Experiments:
[1] = biological target: T1, AtNTT1 (Arabidopsis thaliana, UniProt Q39002); conditions: 30 °C; labelled compound
T1 sequence (Q39002 87-624): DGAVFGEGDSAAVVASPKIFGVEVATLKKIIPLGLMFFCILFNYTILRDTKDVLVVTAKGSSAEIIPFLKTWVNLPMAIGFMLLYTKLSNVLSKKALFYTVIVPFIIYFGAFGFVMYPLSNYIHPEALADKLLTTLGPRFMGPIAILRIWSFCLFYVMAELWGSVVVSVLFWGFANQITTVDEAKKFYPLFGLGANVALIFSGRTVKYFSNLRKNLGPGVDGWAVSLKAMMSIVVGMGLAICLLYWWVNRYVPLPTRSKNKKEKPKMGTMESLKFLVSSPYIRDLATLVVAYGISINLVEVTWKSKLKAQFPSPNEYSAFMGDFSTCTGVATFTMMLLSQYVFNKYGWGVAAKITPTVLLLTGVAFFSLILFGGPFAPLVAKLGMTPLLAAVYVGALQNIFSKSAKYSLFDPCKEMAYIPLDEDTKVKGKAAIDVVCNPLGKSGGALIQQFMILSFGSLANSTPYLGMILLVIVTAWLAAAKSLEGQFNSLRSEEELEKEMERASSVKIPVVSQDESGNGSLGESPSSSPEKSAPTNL

[2] = biological target: T2, HoNTT (Holospora obtusa, UniProt W6TTK3); conditions: 30 °C; labelled compound
T2 sequence (W6TTK3 1-514): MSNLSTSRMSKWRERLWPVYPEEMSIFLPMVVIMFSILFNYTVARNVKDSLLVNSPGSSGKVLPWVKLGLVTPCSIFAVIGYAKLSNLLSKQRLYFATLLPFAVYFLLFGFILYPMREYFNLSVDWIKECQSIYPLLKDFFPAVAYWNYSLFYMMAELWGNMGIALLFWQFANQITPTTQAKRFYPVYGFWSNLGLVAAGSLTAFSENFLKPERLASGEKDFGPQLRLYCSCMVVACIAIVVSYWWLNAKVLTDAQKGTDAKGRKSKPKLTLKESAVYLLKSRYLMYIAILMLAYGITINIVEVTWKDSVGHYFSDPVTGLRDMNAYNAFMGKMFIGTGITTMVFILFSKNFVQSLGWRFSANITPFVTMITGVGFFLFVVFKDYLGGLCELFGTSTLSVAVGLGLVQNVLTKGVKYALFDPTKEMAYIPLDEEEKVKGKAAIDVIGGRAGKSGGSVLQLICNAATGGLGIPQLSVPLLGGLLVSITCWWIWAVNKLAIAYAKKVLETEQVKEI

## Nc1ncnc2c1ncn2[C@@H]1O[C@H](COP(=O)(O)OP(=O)(O)OP(=O)(O)O)[C@@H](O)[C@H]1O [ATP]
[1]
  uptake of labelled substrate into proteoliposomes: All recombinant carriers mediated ATP and ADP transport
[2]
  uptake of labelled substrate into proteoliposomes: All recombinant carriers mediated ATP and ADP transport
